The results in this text go back to patent publication US12258328B2, “6-membered heteroaryl-containing aminopyridine compounds as EGFR inhibitors” (YUHAN CORPORATION, priority 2021, dated 2025).

Each structure is given as a SMILES string. pIC50: −log10 of the molar value. Where two headings read alike, the source gives them in different places. Some results are limits rather than exact numbers.

One assay addresses EGFR del19/T790M/C797S (Homo sapiens, UniProt P00533, C797S/DEL746-750/T790M). Put plainly: Biochemical EGFR kinase assay (Lance Ultra TR-FRET), triple mutant del19/T790M/C797S. The procedure, abridged: (§1)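 In this biochemical assay, phosphorylation after a one-hour room-temperature reaction was detected with europium-labelled anti-phosphopeptide antibody at 2 nM final concentration.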

In the next assay the target is EGFR L858R/T790M/C797S (Homo sapiens, UniProt P00533, C797S/L858R/T790M). Put plainly: Biochemical EGFR kinase assay (Lance Ultra TR-FRET), triple mutant L858R/T790M/C797S. The procedure, abridged:
as §1
A general note: TR-FRET usually uses a lanthanide donor and a delayed reading to cut background.

In the next assay the target is EGFR del19/C797S (Homo sapiens, UniProt P00533, C797S/DEL746-750). Put plainly: Biochemical EGFR kinase assay (Lance Ultra TR-FRET), double mutant del19/C797S. The procedure, abridged: as §1
EGFR del19/C797S, sequence (P00533 with tags, fused parts or gaps DEL746-750/C797S): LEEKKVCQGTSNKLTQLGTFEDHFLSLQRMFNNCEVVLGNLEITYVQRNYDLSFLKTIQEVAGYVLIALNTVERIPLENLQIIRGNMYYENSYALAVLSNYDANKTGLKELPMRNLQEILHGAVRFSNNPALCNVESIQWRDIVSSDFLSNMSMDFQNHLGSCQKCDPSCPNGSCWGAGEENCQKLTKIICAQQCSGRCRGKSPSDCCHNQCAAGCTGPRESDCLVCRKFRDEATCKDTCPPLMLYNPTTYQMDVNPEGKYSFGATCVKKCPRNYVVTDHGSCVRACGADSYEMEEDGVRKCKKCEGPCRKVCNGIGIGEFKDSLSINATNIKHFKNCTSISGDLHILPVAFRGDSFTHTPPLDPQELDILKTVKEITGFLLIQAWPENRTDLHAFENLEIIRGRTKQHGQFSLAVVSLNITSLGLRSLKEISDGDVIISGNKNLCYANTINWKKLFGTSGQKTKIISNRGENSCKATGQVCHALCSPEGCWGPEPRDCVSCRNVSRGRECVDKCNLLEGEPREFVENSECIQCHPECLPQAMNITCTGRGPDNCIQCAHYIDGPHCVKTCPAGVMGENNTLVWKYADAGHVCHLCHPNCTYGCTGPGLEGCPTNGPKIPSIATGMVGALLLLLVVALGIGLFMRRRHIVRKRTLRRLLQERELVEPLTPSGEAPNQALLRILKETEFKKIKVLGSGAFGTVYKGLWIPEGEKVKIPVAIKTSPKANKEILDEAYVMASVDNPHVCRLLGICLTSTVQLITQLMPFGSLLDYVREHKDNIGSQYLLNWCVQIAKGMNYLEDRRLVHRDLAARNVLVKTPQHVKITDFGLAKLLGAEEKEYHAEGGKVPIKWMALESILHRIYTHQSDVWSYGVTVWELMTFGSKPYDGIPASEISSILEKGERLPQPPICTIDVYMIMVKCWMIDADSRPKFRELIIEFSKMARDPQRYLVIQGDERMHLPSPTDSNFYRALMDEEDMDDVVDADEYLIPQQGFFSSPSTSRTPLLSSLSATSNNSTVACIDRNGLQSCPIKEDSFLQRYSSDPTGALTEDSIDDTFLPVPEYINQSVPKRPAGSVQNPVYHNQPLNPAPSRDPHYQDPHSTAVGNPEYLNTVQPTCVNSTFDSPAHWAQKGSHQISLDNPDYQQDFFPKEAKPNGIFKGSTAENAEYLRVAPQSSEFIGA
The target of the next assay is EGFR L858R/C797S (Homo sapiens, UniProt P00533, C797S/L858R). Put plainly: Biochemical EGFR kinase assay (Lance Ultra TR-FRET), double mutant L858R/C797S. The procedure, abridged: as §1
EGFR L858R/C797S, sequence (P00533 25-1210 C797S/L858R): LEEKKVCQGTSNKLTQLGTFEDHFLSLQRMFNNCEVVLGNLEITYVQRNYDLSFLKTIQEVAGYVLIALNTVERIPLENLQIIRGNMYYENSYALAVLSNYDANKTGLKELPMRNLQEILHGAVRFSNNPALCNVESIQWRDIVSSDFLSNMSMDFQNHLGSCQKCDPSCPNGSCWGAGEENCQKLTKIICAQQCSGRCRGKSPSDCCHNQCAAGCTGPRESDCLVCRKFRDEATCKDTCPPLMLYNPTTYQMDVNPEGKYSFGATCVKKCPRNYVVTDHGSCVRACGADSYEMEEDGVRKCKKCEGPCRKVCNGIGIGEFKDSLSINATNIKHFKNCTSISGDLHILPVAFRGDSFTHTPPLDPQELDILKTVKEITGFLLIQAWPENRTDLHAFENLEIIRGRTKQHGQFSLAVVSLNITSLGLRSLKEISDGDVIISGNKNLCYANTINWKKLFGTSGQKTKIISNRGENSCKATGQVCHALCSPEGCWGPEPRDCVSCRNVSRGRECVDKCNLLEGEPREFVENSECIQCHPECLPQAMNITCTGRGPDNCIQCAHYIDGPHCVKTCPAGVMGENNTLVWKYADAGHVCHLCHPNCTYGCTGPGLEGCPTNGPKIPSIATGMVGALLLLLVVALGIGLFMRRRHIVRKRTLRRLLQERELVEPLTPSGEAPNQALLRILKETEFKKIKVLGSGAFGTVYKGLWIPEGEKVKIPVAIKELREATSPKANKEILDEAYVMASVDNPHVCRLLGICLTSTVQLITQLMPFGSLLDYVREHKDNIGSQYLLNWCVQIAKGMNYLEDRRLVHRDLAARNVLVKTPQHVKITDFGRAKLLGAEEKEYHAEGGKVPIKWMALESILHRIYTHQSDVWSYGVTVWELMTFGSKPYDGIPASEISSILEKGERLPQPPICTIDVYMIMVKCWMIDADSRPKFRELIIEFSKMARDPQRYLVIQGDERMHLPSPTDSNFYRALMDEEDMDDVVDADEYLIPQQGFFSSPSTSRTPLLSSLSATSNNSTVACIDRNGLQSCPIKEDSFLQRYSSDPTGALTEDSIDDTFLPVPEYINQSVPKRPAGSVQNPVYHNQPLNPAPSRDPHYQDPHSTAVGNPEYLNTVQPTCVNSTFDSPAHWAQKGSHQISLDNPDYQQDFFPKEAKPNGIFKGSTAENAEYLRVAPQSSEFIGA
A further assay addresses EGFR wildtype (Homo sapiens, UniProt P00533). As to the kind of experiment: Biochemical EGFR kinase assay (Lance Ultra TR-FRET), wildtype. The procedure, abridged:
as §1

Setting [1] is: Km ATP, read-out: IC50 del19/T790M/C797S (nM) Km ATP.
Where [2] appears, read: Km ATP, read-out: IC50 L858R/T790M/C797S (nM) Km ATP.
[3] abbreviates: Km ATP, read-out: IC50 del19/C797S (nM) Km ATP.
[4] abbreviates: Km ATP, read-out: IC50 L858R/C797S (nM) Km ATP.
[5] abbreviates: Km ATP, read-out: IC50 WT (nM) Km ATP.
The mark [6] stands for this setting: IC50 del19/T790M/C797S (nM) 100 μM ATP, 100 μM ATP.
Where [7] appears, read: IC50 L858R/T790M/C797S (nM) 100 μM ATP, 100 μM ATP.
Setting [8] is: IC50 del19/C797S (nM) 100 μM ATP, 100 μM ATP.
Where [9] appears, read: IC50 L858R/C797S (nM) 100 μM ATP, 100 μM ATP.
Where [10] appears, read: IC50 WT (nM) 100 μM ATP, 100 μM ATP.

EGFR wildtype, sequence (P00533 25-1210): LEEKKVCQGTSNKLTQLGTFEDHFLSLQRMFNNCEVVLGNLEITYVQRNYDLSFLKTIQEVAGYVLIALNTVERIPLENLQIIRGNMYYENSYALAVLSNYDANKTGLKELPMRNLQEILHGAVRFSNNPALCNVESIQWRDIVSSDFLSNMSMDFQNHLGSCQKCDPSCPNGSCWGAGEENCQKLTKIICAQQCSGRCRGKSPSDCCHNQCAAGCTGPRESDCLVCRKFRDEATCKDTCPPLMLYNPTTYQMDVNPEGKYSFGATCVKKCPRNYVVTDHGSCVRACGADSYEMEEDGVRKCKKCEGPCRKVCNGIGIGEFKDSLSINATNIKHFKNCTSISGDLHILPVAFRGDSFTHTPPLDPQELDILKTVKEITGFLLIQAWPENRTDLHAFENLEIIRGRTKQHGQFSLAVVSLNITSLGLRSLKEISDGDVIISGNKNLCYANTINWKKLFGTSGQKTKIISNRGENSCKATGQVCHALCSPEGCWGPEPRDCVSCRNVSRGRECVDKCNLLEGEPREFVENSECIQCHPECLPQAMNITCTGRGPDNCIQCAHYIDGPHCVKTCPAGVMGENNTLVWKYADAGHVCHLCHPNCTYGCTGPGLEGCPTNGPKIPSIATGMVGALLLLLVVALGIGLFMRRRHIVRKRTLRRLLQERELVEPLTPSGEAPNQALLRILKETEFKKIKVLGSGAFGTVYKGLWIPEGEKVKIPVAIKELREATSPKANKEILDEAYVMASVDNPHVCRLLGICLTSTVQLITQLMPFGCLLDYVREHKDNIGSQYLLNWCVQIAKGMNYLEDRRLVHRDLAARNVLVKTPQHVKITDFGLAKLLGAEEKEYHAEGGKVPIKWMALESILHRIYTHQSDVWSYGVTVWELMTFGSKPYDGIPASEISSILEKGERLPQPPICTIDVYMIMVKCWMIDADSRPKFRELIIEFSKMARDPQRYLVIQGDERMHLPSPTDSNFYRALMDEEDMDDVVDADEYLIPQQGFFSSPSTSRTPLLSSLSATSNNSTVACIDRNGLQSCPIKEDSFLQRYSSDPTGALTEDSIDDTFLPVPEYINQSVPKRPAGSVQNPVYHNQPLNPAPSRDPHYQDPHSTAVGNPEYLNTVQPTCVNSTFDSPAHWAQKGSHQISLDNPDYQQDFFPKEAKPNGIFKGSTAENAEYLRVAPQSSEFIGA
EGFR del19/T790M/C797S, sequence (P00533 with tags, fused parts or gaps DEL746-750/T790M/C797S): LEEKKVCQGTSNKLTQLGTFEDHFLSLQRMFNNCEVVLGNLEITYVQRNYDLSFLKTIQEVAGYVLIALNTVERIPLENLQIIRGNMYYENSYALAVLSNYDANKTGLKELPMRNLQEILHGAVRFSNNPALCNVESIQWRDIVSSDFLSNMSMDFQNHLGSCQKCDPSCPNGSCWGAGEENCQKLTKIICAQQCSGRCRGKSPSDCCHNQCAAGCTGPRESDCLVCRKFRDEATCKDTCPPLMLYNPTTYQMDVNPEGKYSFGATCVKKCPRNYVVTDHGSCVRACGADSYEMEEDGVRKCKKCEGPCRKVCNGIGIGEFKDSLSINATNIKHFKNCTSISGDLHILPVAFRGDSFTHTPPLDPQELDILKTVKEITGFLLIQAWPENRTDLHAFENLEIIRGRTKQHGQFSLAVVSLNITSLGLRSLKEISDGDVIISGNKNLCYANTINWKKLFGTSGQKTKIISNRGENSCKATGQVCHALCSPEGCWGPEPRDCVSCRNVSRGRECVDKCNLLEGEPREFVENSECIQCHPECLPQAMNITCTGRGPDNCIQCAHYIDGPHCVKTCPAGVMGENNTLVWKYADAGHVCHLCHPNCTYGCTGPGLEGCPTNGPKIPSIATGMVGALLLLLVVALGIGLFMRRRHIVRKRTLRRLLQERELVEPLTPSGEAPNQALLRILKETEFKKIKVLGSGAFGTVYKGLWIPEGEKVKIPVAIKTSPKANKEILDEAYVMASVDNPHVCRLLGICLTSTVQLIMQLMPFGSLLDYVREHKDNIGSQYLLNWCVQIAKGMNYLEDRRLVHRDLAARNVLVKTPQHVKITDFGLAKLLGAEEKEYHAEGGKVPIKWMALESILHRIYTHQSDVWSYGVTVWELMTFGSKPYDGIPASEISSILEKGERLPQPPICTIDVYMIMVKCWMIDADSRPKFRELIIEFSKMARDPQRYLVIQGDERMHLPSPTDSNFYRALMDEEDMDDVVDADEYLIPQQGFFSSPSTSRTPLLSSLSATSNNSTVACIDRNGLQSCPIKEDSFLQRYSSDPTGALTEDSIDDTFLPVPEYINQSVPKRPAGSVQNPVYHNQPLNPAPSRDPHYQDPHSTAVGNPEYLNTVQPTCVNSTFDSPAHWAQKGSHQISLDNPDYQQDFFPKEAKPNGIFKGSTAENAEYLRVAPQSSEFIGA

As to `C[C@]1(O)CC[C@@H](Nc2cc(Nc3ccnc(-c4cnn(S(=O)(=O)C5CC5)c4)n3)ncc2-c2cc(OC(F)F)ccn2)CC1` [Example 331, (1s,4s)-4-((6′-((2-(1-(Cyclopropylsulfonyl)-1H-pyrazol-4-yl)pyrimidin-4-yl)amino)-4-(difluoromethoxy)-[2,3′-bipyridin]-4′-yl)amino)-1-methylcyclohexan-1-ol], the IC50 on EGFR del19/T790M/C797S (setting [1]) is 1.9 nM; at EGFR L858R/T790M/C797S (setting [2]), 0.7 nM; on EGFR del19/C797S (setting [3]), 3.5 nM; at EGFR L858R/C797S (setting [4]), 2.4 nM; on EGFR wildtype (setting [5]), 17.4 nM.

With `C[C@]1(O)CC[C@@H](Nc2cc(Nc3ccnc(-c4cnn(S(=O)(=O)C5CC5)c4)n3)ncc2-c2ccc(N3CCOCC3)cn2)CC1` [Example 38, (1s,4s)-4-((6′-((2-(1-(Cyclopropylsulfonyl)-1H-pyrazol-4-yl)pyrimidin-4-yl)amino)-5-morpholino-[2,3′-bipyridin]-4′-yl)amino)-1-methylcyclohexan-1-ol], the IC50 at EGFR del19/T790M/C797S (setting [6]) is 0.4 nM; on EGFR L858R/T790M/C797S (setting [7]), 0.7 nM; at EGFR L858R/T790M/C797S (setting [2]), 0.2 nM; at EGFR del19/C797S (setting [8]) it was 0.6 nM; on EGFR del19/C797S (setting [3]) it was 0.3 nM; against EGFR L858R/C797S (setting [9]), 4.3 nM. For the same molecule, the IC50 at EGFR L858R/C797S (setting [4]) stood at 0.9 nM; at EGFR wildtype (setting [10]), 1430 nM.

For `C[C@]1(O)CC[C@@H](Nc2cc(Nc3ccnc(-c4cnn(S(=O)(=O)C5CC5)c4)n3)ncc2-c2cnc(N3CCOCC3)cn2)CC1` [Example 44, (1s,4s)-4-((2-((2-(1-(Cyclopropylsulfonyl)-1H-pyrazol-4-yl)pyrimidin-4-yl)amino)-5-(5-morpholinopyrazin-2-yl)pyridin-4-yl)amino)-1-methylcyclohexan-1-ol], the IC50 was 0.6 nM on EGFR del19/T790M/C797S (setting [6]); 0.6 nM at EGFR L858R/T790M/C797S (setting [7]); 0.8 nM on EGFR del19/C797S (setting [8]); 7.1 nM against EGFR L858R/C797S (setting [9]); over 10000 nM against EGFR wildtype (setting [10]).

`O=S(=O)(C1CC1)n1cc(-c2nccc(Nc3cc(N[C@H]4CC[C@H](CCO)CC4)c(-c4ccc(C(F)F)cn4)cn3)n2)cn1` [Example 95, 2-((1r,4r)-4-((6′-((2-(1-(Cyclopropylsulfonyl)-1H-pyrazol-4-yl)pyrimidin-4-yl)amino)-5-(difluoromethyl)-[2,3′-bipyridin]-4′-yl)amino)cyclohexyl)ethan-1-ol]: the IC50 against EGFR del19/T790M/C797S (setting [6]) was 5.6 nM; on EGFR del19/T790M/C797S (setting [1]) it was 2.5 nM; on EGFR L858R/T790M/C797S (setting [7]), 2 nM; on EGFR L858R/T790M/C797S (setting [2]), 0.9 nM; against EGFR del19/C797S (setting [8]), 1540 nM; at EGFR del19/C797S (setting [3]), 66.9 nM. For the same molecule, the IC50 on EGFR L858R/C797S (setting [9]) was 9160 nM; at EGFR L858R/C797S (setting [4]), 8480 nM; against EGFR wildtype (setting [10]) it was over 10000 nM; on EGFR wildtype (setting [5]) it was 222 nM.

Turning to `CN(C)C[C@H]1CC[C@@H](Nc2cc(Nc3ccnc(-c4cnn(S(=O)(=O)C5CC5)c4)n3)ncc2-c2cc(C(F)F)ccn2)CC1` [Example 79, N^6′-(2-(1-(Cyclopropylsulfonyl)-1H-pyrazol-4-yl)pyrimidin-4-yl)-4-(difluoromethyl)-N^4′-((1s,4s)-4-((dimethylamino)methyl)cyclohexyl)-[2,3′-bipyridine]-4′,6′-diamine], the IC50 against EGFR del19/T790M/C797S (setting [6]) was 0.5 nM; at EGFR del19/T790M/C797S (setting [1]), 0.8 nM; on EGFR L858R/T790M/C797S (setting [7]), 0.5 nM; on EGFR L858R/T790M/C797S (setting [2]), 0.3 nM; on EGFR del19/C797S (setting [8]) it was 0.6 nM; at EGFR del19/C797S (setting [3]), 0.4 nM. The IC50 was found to be 4.7 nM against EGFR L858R/C797S (setting [9]), 0.7 nM at EGFR L858R/C797S (setting [4]), 450 nM against EGFR wildtype (setting [10]) and 1.4 nM on EGFR wildtype (setting [5]).

As to `C[C@]1(O)CC[C@@H](Nc2cc(Nc3ccnc(-c4cnn(S(=O)(=O)C5CC5)c4)n3)ncc2-c2cnc(CO)cn2)CC1` [Example 60, (1s,4s)-4-((2-((2-(1-(Cyclopropylsulfonyl)-1H-pyrazol-4-yl)pyrimidin-4-yl)amino)-5-(5-(hydroxymethyl)pyrazin-2-yl)pyridin-4-yl)amino)-1-methylcyclohexan-1-ol], the IC50 at EGFR del19/T790M/C797S (setting [6]) came to 0.2 nM; on EGFR del19/T790M/C797S (setting [1]), 0.2 nM; against EGFR L858R/T790M/C797S (setting [7]), 0.4 nM; on EGFR L858R/T790M/C797S (setting [2]), 0.2 nM; against EGFR del19/C797S (setting [8]), 0.5 nM; on EGFR del19/C797S (setting [3]), 0.4 nM. The IC50 against EGFR L858R/C797S (setting [9]) was 4.2 nM; on EGFR L858R/C797S (setting [4]) it was 0.4 nM; against EGFR wildtype (setting [10]), over 10000 nM; at EGFR wildtype (setting [5]), 6.8 nM.

As to `O=S(=O)(C1CC1)n1cc(-c2nccc(Nc3cc(N[C@H]4CC[C@@H](NCCF)CC4)c(-c4ccccn4)cn3)n2)cn1` [Example 36, N^6′-(2-(1-(Cyclopropylsulfonyl)-1H-pyrazol-4-yl)pyrimidin-4-yl)-N^4′-((1s,4s)-4-((2-fluoroethyl)amino)cyclohexyl)-[2,3′-bipyridine]-4′,6′-diamine], the IC50 was determined as 0.2 nM against EGFR del19/T790M/C797S (setting [6]); 0.1 nM at EGFR del19/T790M/C797S (setting [1]); 0.1 nM against EGFR L858R/T790M/C797S (setting [7]); 0.1 nM at EGFR L858R/T790M/C797S (setting [2]); 0.9 nM on EGFR del19/C797S (setting [8]); 0.5 nM at EGFR del19/C797S (setting [3]). The IC50 at EGFR L858R/C797S (setting [9]) was found to be 15.7 nM; at EGFR L858R/C797S (setting [4]) it was 1 nM; against EGFR wildtype (setting [10]), 3080 nM; on EGFR wildtype (setting [5]), 5.8 nM.

With `O=S(=O)(C1CC1)n1cc(-c2nccc(Nc3cc(N[C@H]4CC[C@@H](F)CC4)c(-c4ccc(N5CCOCC5)cn4)cn3)n2)cn1` [Example 123, N^6′-(2-(1-(Cyclopropylsulfonyl)-1H-pyrazol-4-yl)pyrimidin-4-yl)-N^4′-((1s,4s)-4-fluorocyclohexyl)-5-morpholino-[2,3′-bipyridine]-4′,6′-diamine], the IC50 was determined as 2.6 nM on EGFR del19/T790M/C797S (setting [1]); 0.7 nM at EGFR L858R/T790M/C797S (setting [2]); 28.6 nM at EGFR del19/C797S (setting [3]); 2.3 nM on EGFR L858R/C797S (setting [4]); 22 nM at EGFR wildtype (setting [5]).

In the case of `O=S(=O)(C1CC1)n1cc(-c2nccc(Nc3cc(N[C@H]4CC[C@@H](F)CC4)c(-c4ccc(CN5CCOCC5)cn4)cn3)n2)cn1` [Example 126, N^6′-(2-(1-(Cyclopropylsulfonyl)-1H-pyrazol-4-yl)pyrimidin-4-yl)-N^4′-((1s,4s)-4-fluorocyclohexyl)-5-(morpholinomethyl)-[2,3′-bipyridine]-4′,6′-diamine], the IC50 on EGFR del19/T790M/C797S (setting [1]) was found to be 2.7 nM; on EGFR L858R/T790M/C797S (setting [2]) it was 1.2 nM; on EGFR del19/C797S (setting [3]) it was 12.1 nM; at EGFR L858R/C797S (setting [4]), 12.6 nM; at EGFR wildtype (setting [5]) it was 45.7 nM.

For the molecule `O=S(=O)(C1CC1)n1cc(-c2nccc(Nc3cc(N[C@H]4CC[C@@H](CO)CC4)c(-c4ccc(OC(F)(F)F)cn4)cn3)n2)cn1` [Example 195, ((1s,4s)-4-((6′-((2-(1-(Cyclopropylsulfonyl)-1H-pyrazol-4-yl)pyrimidin-4-yl)amino)-5-(trifluoromethoxy)-[2,3′-bipyridin]-4′-yl)amino)cyclohexyl)methanol], the pIC50 at EGFR del19/T790M/C797S (ATP at Km, read-out: IC50 del19/T790M/C797S, Km ATP) was 8.48; at EGFR del19/T790M/C797S (IC50 del19/T790M/C797S, 100 μM ATP), 8.44; on EGFR L858R/T790M/C797S (ATP at Km, read-out: IC50 L858R/T790M/C797S, Km ATP), 9.00; against EGFR L858R/T790M/C797S (IC50 L858R/T790M/C797S, 100 μM ATP) it was 8.60; at EGFR del19/C797S (ATP at Km, read-out: IC50 del19/C797S, Km ATP) it was 8.18; at EGFR del19/C797S (IC50 del19/C797S, 100 μM ATP), 7.79. The pIC50 on EGFR L858R/C797S (ATP at Km, read-out: IC50 L858R/C797S, Km ATP) is 8.44; on EGFR L858R/C797S (IC50 L858R/C797S, 100 μM ATP) it was 7.43; at EGFR wildtype (ATP at Km, read-out: IC50 WT, Km ATP), 7.60; against EGFR wildtype (IC50 WT, 100 μM ATP), under 5.00.

For `CN1CCN(Cc2cccc(-c3cnc(Nc4ccnc(-c5cnn(S(=O)(=O)C6CC6)c5)n4)cc3N[C@H]3CC[C@@](C)(O)CC3)n2)CC1` [Example 28, (1s,4s)-4-((6′-((2-(1-(Cyclopropylsulfonyl)-1H-pyrazol-4-yl)pyrimidin-4-yl)amino)-6-((4-methylpiperazin-1-yl)methyl)-[2,3′-bipyridin]-4′-yl)amino)-1-methylcyclohexan-1-ol], the IC50 came out at 0.1 nM against EGFR del19/T790M/C797S (setting [6]); 0.1 nM at EGFR L858R/T790M/C797S (setting [7]); 0.6 nM against EGFR del19/C797S (setting [8]); 1.6 nM at EGFR L858R/C797S (setting [9]); 1530 nM against EGFR wildtype (setting [10]).
